In data set [1] the test system is Burkholderia thailandensis (E 264). Briefly: microbe, parasite or virus in culture. In kind it is cell-based. The following applies: for zone of inhibition at 100 µM / zone of inhibition at 500 µM / zone of inhibition at 1000 µM: Burkholderia thailandensis, read-out: Zone of inhibition (diameter, in millimeter) B. thailandensis; for zone of inhibition at 100 µM: Conc. 0.1 mM; for zone of inhibition at 500 µM: Conc. 0.5 mM; for zone of inhibition at 1000 µM: Conc. 1.0 mM.

Data set [2] deals with Pseudomonas aeruginosa (ATCC 27853). Briefly: microbe, parasite or virus in culture. In kind it is cell-based. The following applies: for zone of inhibition at 100 µM / zone of inhibition at 500 µM / zone of inhibition at 1000 µM: Pseudomonas aeruginosa, ATCC27853, read-out: Zone of inhibition (diameter, in millimeter) P. aeruginosa; for zone of inhibition at 100 µM: Conc. 0.1 mM; for zone of inhibition at 500 µM: Conc. 0.5 mM; for zone of inhibition at 1000 µM: Conc. 1.0 mM.

Data set [3] in a line: Solubility observed in work-up. The following applies: in water and ethyl acetate.
Data set [4] relates to BtIspE. In kind it is binding, Burkholderia thailandensis.
For data set [5], the target named is T1, BtIspD (Burkholderia thailandensis, UniProt Q2SWT6).
T1 construct: 6xHis (AVA0421 vector, 3C-cleavable) (N, cleaved yes); made in house; host or cells: E. coli BL21(DE3)R3 Rosetta Oxford
T1 sequence (Q2SWT6 1-236): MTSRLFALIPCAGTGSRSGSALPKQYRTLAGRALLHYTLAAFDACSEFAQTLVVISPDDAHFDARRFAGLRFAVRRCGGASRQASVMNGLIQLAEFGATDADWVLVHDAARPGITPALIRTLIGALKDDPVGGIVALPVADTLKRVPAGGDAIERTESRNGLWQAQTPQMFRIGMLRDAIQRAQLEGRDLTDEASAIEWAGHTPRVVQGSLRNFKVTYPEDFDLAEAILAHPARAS
It is filed as binding.

The target in data set [6] is T2, Mycobacterium paratuberculosis (Mp) IspD (Mycolicibacterium paratuberculosis, UniProt Q743W5).
T2 sequence (Q743W5 1-235): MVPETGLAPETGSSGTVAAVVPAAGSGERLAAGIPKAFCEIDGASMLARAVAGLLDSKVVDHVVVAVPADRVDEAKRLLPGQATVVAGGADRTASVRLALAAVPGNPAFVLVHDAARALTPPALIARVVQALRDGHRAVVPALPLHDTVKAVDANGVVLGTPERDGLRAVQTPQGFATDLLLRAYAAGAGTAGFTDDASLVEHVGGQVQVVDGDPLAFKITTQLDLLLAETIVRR
In kind it is binding.

The test system of data set [7] is Mycobacterium abscessus (Ma) IspE. In kind it is binding.
Data set [8] deals with BpIspF (Burkholderia pseudomallei, UniProt Q63T71). It is filed as binding, B. pseudomallei.
Sequence of BpIspF (Q63T71 whole entry, looked up): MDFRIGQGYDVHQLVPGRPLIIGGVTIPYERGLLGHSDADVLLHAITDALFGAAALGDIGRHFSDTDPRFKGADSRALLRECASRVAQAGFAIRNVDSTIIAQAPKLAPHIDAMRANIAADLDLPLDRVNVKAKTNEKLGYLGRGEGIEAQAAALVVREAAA

Entries after “also recorded” stand apart in the source; their conditions may differ.

6 compounds from patent US10155766B2, “Pyrazolopyrimidine antibacterial agents” (priority 2016, dated 2018) can be followed below.

Compound `Cn1ncc2c(NCCO)ncnc21` [Compound 3] displayed a melting point of 196 to 198 °C. Further, in [1], the zone of inhibition at 100 µM came to 0 mm, the zone of inhibition at 500 µM is 0 mm and the zone of inhibition at 1000 µM turned out to be 0 mm. Besides, in data set [2], the zone of inhibition at 100 µM was found to be 0 mm, the zone of inhibition at 500 µM was 15 mm and the zone of inhibition at 1000 µM is 21 mm. Besides, in data set [3], the “solubility (in words)” value is reported as “partially soluble”.

Compound `Cn1ncc2c(NCc3cccc(F)c3)ncnc21` [Compound 14] displayed a melting point of 176 to 177 °C. Besides, in data set [1], the zone of inhibition at 100 µM stood at 0 mm, the zone of inhibition at 500 µM is 6 mm and the zone of inhibition at 1000 µM is 11 mm. Also, in [2], the zone of inhibition at 100 µM was 0 mm, the zone of inhibition at 500 µM stood at 10 mm and the zone of inhibition at 1000 µM was 15 mm. In addition, the “STD-NMR binding to BtIspE (in words)” value in data set [4] is on record as “high % STD values”.

Compound `Cn1ncc2c(NCc3ccc(Cl)cc3)ncnc21` [Compound 17] registered a melting point of 197 to 199 °C. Besides, in data set [1], the “growth inhibition of B. thailandensis (in words)” value is recorded as “did not show measurable growth inhibition”, the zone of inhibition at 100 µM worked out at 0 mm, the zone of inhibition at 500 µM is 0 mm and the zone of inhibition at 1000 µM turned out to be 0 mm. Also, in data set [2], the “growth inhibition of P. aeruginosa (in words)” value is reported as “did not show measurable growth inhibition”, the zone of inhibition at 100 µM was found to be 0 mm, the zone of inhibition at 500 µM was 0 mm and the zone of inhibition at 1000 µM is 0 mm. In addition, in [5], the “STD-NMR binding to BtIspD (in words)” value is reported as “strongest binders”. In addition, in [6], the “fragment binding to MpIspD (in words)” value is “hit and clear fragment binder”. Further, the “fragment binding to MaIspE (in words)” value in data set [7] is “hit and clear fragment binder”. For the same compound, the “fragment binding to BpIspF (in words)” value in data set [8] is on record as “very weak binder below the STD-NMR hit threshold”.

As to `Cn1ncc2c(NCc3ccc(Cl)c(Cl)c3)ncnc21` [Compound 18], the melting point was 170 to 173 °C. Besides, in data set [1], the zone of inhibition at 100 µM turned out to be 0 mm, the zone of inhibition at 500 µM is 12 mm and the zone of inhibition at 1000 µM is 18 mm. Besides, in data set [2], the zone of inhibition at 100 µM worked out at 0 mm, the zone of inhibition at 500 µM was determined as 10 mm and the zone of inhibition at 1000 µM was 20 mm. Moreover, the “STD-NMR binding to BtIspD (in words)” value in data set [5] is given as “strongest binders”. The “STD-NMR binding to BtIspE (in words)” value in data set [4] was “high % STD values”.

Regarding `Cn1ncc2c(NCCc3ccc(O)cc3)ncnc21` [Compound 25], the melting point was 182 to 184 °C. Moreover, in [1], the “growth inhibition of B. thailandensis (in words)” value is listed as “Activity was not detected; also recorded: did not show zone of inhibition activity”, the zone of inhibition at 100 µM turned out to be 0 mm, the zone of inhibition at 500 µM turned out to be 0 mm and the zone of inhibition at 1000 µM amounted to 0 mm. Also, in data set [2], the “growth inhibition of P. aeruginosa (in words)” value was “Activity was not detected; also recorded: did not show zone of inhibition activity”, the zone of inhibition at 100 µM was found to be 0 mm, the zone of inhibition at 500 µM was 0 mm and the zone of inhibition at 1000 µM was 0 mm. Further, the “STD-NMR binding to BtIspD (in words)” value in [5] is given as “strongest binders”. In addition, in data set [4], the “STD-NMR binding to BtIspE (in words)” value is “weaker binder”, the “change of % STD binding signal to BtIspE after subsequent addition of CDP” value is given as “loses all binding signal entirely” and the “change of % STD binding signal to BtIspE upon addition of ADP” value is given as “no change”.

The compound `Cn1ncc2c(NCCc3ccc(Cl)cc3Cl)ncnc21` [Compound 29] gave a melting point of 145 to 147 °C. For the same compound, in data set [1], the “growth inhibition of B. thailandensis (in words)” value is on record as “most potent compound tested”, the zone of inhibition at 100 µM is 6 mm, the zone of inhibition at 500 µM is 10 mm and the zone of inhibition at 1000 µM turned out to be 18 mm. Moreover, in data set [2], the “concentration at which inhibitory activity against kanamycin resistant P. aeruginosa is shown” value is 0.5 mM, the “growth inhibition of P. aeruginosa (in words)” value is “measurable potency”, the zone of inhibition at 100 µM was found to be 0 mm and the zone of inhibition at 500 µM worked out at 12 mm. For the same compound, the zone of inhibition at 1000 µM in [2] was determined as 18 mm. Besides, the “STD-NMR binding to BtIspD (in words)” value in data set [5] is on record as “strongest binders”. The “STD-NMR binding to BtIspE (in words)” value in [4] is “high % STD values; also recorded: highest % STD value; also recorded: significant interactions with the active site of BtIspE”.
